# In patent US7001905B2, “Substituted diarylamines as MEK inhibitors” (Warner-Lambert Company, priority 2000, dated 2006):
# pIC50: −log10 of the molar value.
# Target: T1, MEK (Homo sapiens, UniProt Q02750)
# T1 construct: no tag is given for the 2D mutant
# Assay: in vitro MEK assay
# Assay type: biochemical
# Method: For evaluation of direct MEK activity, 10 μg GST-MEK, is incubated in the presence of absence of test compound with 5 μg of a glutathione S-transferase fusion protein containing p44MAP kinase with a lysine to alanine mutation at position 71 (GST-MAPK-KA). This mutation eliminates kinase activity of MAPK, so only kinase activity attributed to the added MEK remains. Incubations are 15 minutes at 30° C. in a final volume of 50 μL containing 50 mM Tris (pH 7.5), […], 2, μM EGTA, and 10 μM [γ-^32P]ATP. The reaction is stopped by addition of Laemmli SDS sample buffer. Phosphorylated GST-MAPK-KA is resolved by electrophoresis on a 10% polyacrylamide gel. Radioactivity incorporated into GST-MAPK-KA is determined by autoradiography, and subsequent scintillation counting of excised bands.
# Alternatively, an artificially activated MEK containing serine to glutamate mutations at positions 218 and 222 (GST-MEK-2E) is used. When these two sites are phosphorylated, MEK activity is increased. Phosphorylation of these sites can be mimicked by mutation of the serine residues to glutamate. For this assay, 5 μg GST-MEK-2E is incubated with 5 μg GST-MAPK-KA for 15 minutes at 30° C. in the same reaction buffer as described above. Reactions are terminated and analyzed as above.
# T1 sequence (Q02750 whole entry S218D/S222D, form open): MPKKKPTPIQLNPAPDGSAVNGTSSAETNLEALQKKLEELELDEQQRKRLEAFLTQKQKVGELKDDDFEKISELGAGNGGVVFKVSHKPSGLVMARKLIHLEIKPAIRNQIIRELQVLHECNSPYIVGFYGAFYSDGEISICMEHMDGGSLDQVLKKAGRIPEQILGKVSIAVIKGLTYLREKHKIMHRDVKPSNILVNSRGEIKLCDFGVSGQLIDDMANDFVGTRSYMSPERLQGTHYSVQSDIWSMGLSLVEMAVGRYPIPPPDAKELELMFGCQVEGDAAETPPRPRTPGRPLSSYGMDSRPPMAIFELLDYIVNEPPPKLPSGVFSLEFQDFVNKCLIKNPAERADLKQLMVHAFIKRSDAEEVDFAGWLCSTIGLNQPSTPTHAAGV
compound,measurement,value
"CCCCN(CCS)C(=O)c1cc(C(=O)O)c(Nc2ccc(I)cc2C)c(F)c1F [Example 68, N-Butyl-4,5-difluoro-6-(4-iodo-2-methyl-phenylamino)-N-(2-mercapto-ethyl)-isophthalamic acid]",in vitro MEK assay: % inhibition @ 1 μM,24%
"Cc1cc(I)ccc1Nc1c(C(=O)O)cc(C(=O)N2CCCCC2CCO)c(F)c1F (stereo not shown) [Example 69, 3,4-Difluoro-5-{1-[2-(2-hydroxy-ethyl)-piperidin-1-yl]-methanoyl}-2-(4-iodo-2-methyl-phenylamino)-benzoic acid]",pIC50,5.66
same,in vitro MEK assay: % inhibition @ 1 μM,78%
"Cc1cc(I)ccc1Nc1c(C(=O)O)cc(C(=O)N2CCCCC2CO)c(F)c1F (stereo not shown) [Example 70, 3,4-Difluoro-5-[1-(2-hydroxymethyl-piperidin-1-yl)-methanoyl]-2-(4-iodo-2-methyl-phenylamino)-benzoic acid]",in vitro MEK assay: % inhibition @ 1 μM,49%
"Cc1cc(I)ccc1Nc1c(C(=O)O)cc(C(=O)NCc2cccnc2)c(F)c1F [Example 71, 4,5-Difluoro-6-(4-iodo-2-methyl-phenylamino)-N-pyridin-3-ylmethyl-isophthalamic acid]",pIC50,5.84
same,in vitro MEK assay: % inhibition @ 1 μM,86%
"Cc1cc(I)ccc1Nc1c(C(=O)O)cc(C(=O)Nc2ccc3c(c2)OCCO3)c(F)c1F [Example 72, N-(2,3-Dihydro-benzo[1,4]dioxin-6-yl)4,5-difluoro-6-(4-iodo-2-methyl-phenylamino)-isophthalamic acid]",in vitro MEK assay: % inhibition @ 1 μM,65%
"CCOC(=O)c1c[nH]nc1NC(=O)c1cc(C(=O)O)c(Nc2ccc(I)cc2C)c(F)c1F [Example 73, 3-({1-[5-Carboxy-2,3-difluoro-4-(4-iodo-2-methyl-phenylamino)-phenyl]-methanoyl}-amino)-1H-pyrazole-4-carboxylic acid ethyl ester]",pIC50,5.96
same,in vitro MEK assay: % inhibition @ 1 μM,86%
"Cc1cc(I)ccc1Nc1c(C(=O)O)cc(C(=O)Nc2cccnc2)c(F)c1F [Example 74, 4,5-Difluoro-6-(4-iodo-2-methyl-phenylamino)-N-pyridin-3-yl-isophthalamic acid]",in vitro MEK assay: % inhibition @ 1 μM,50%
Cc1cc(I)ccc1Nc1c(C(=O)O)cc(C(=O)N2CCCC(O)C2)c(F)c1F (stereo not shown) [Example 75],pIC50,6.33
same,in vitro MEK assay: % inhibition @ 1 μM,92%
"Cc1cc(I)ccc1Nc1c(C(=O)O)cc(C(=O)N2CCCC(CO)C2)c(F)c1F (stereo not shown) [Example 76, 3,4-Difluoro-5-[1-(3-hydroxymethyl-piperidin-1-yl)-methanoyl]-2-(4-iodo-2-methyl-phenylamino)-benzoic acid]",pIC50,6.52
same,in vitro MEK assay: % inhibition @ 1 μM,88%
"Cc1cc(I)ccc1Nc1c(C(=O)O)cc(C(=O)N2CCC(O)C2)c(F)c1F (stereo not shown) [Example 77, 3,4-Difluoro-5-[1-(3-hydroxy-pyrrolidin-1-yl)-methanoyl]-2-(4-iodo-2-methyl-phenylamino)-benzoic acid]",pIC50,6.06
same,in vitro MEK assay: % inhibition @ 1 μM,83%
"Cc1cc(I)ccc1Nc1c(C(=O)O)cc(C(=O)N2CCC(N3CCCC3)CC2)c(F)c1F [Example 78, 3,4-Difluoro-2-(4-iodo-2-methyl-phenylamino)-5-[1-(4-pyrrolidin-1-yl-piperidin-1-yl)-methanoyl]-benzoic acid]",in vitro MEK assay: % inhibition @ 1 μM,33%
"Cc1cc(I)ccc1Nc1c(C(=O)O)cc(C(=O)NCCN2CCOCC2)c(F)c1F [Example 79, 4,5-Difluoro-6-(4-iodo-2-methyl-phenylamino)-N-(2-morpholin-4-yl-ethyl)-isophthalamic acid]",pIC50,5.82
same,in vitro MEK assay: % inhibition @ 1 μM,54%
"Cc1cc(I)ccc1Nc1c(C(=O)O)cc(C(=O)NCc2ccncc2)c(F)c1F [Example 80, 4,5-Difluoro-6-(4-iodo-2-methyl-phenylamino)-N-pyridin4-ylmethyl-isophthalamic acid]",pIC50,5.77
same,in vitro MEK assay: % inhibition @ 1 μM,71%
"Cc1cc(I)ccc1Nc1c(C(=O)O)cc(C(=O)N2CCC(O)CC2)c(F)c1F [Example 81, 3,4-Difluoro-5-[1-(4-hydroxy-piperidin-1-yl)-methanoyl]-2-(4-iodo-2-methyl-phenylamino)-benzoic acid]",pIC50,5.74
same,in vitro MEK assay: % inhibition @ 1 μM,86%
"Cc1cc(I)ccc1Nc1c(C(=O)O)cc(C(=O)N2CCC(CCO)CC2)c(F)c1F [Example 83, 3,4-Difluoro-5-{1-[4-(2-hydroxy-ethyl)-piperidin-1-yl]-methanoyl}-2-(4-iodo-2-methyl-phenylamino)-benzoic acid]",pIC50,6.82
same,in vitro MEK assay: % inhibition @ 1 μM,90%
"CCn1nccc1NC(=O)c1cc(C(=O)O)c(Nc2ccc(I)cc2C)c(F)c1F [Example 84, N-(2-Ethyl-2H-pyrazol-3-yl)-4,5-difluoro-6-(4-iodo-2-methyl-phenylamino)-isophthalamic acid]",pIC50,6.02
same,in vitro MEK assay: % inhibition @ 1 μM,79%
"Cc1cc(I)ccc1Nc1c(C(=O)O)cc(C(=O)Nc2ccc(Cl)nc2)c(F)c1F [Example 85, N-(6-Chloro-pyridin-3-yl)-4,5-difluoro-6-(4-iodo-2-methyl-phenylamino)-isophthalamic acid]",pIC50,6.01
same,in vitro MEK assay: % inhibition @ 1 μM,90%
"Cc1cc(I)ccc1Nc1c(C(=O)O)cc(C(=O)Nc2ccc3cn[nH]c3c2)c(F)c1F [Example 86, 4,5-Difluoro-N-(1H-indazol-6-yl)-6-(4-iodo-2-methyl-phenylamino)-isophthalamic acid]",pIC50,5.96
same,in vitro MEK assay: % inhibition @ 1 μM,77%
"Cc1cc(I)ccc1Nc1c(C(=O)O)cc(C(=O)NC(C)CO)c(F)c1F (stereo not shown) [Example 87, 4,5-Difluoro-N-(2-hydroxy-1-methyl-ethyl)-6-(4-iodo-2-methyl-phenylamino)-isophthalamic acid]",pIC50,5.66
same,in vitro MEK assay: % inhibition @ 1 μM,66%
"Cc1cc(I)ccc1Nc1c(C(=O)O)cc(C(=O)NCCc2c[nH]cn2)c(F)c1F [Example 88, 4,5-Difluoro-N-[2-(1H-imidazol-4-yl)-ethyl]-6-(4-iodo-2-methyl-phenylamino)-isophthalamic acid]",pIC50,5.85
same,in vitro MEK assay: % inhibition @ 1 μM,60%
"Cc1cc(I)ccc1Nc1c(C(=O)O)cc(C(=O)N2CCOCC2)c(F)c1F [Example 89, 3,4-Difluoro-2-(4-iodo-2-methyl-1-phenylamino)-5-(1-morpholin-4-yl-methanoyl)-benzoic acid]",in vitro MEK assay: % inhibition @ 1 μM,89%
"Cc1cc(I)ccc1Nc1c(C(=O)O)cc(C(=O)NCCCn2ccnc2)c(F)c1F [Example 90, 4,5-Difluoro-N-(3-imidazol-1-yl-propyl)-6-(4-iodo-2-methyl-phenylamino)-isophthalamic acid]",in vitro MEK assay: % inhibition @ 1 μM,59%
"Cc1cc(I)ccc1Nc1c(C(=O)O)cc(C(=O)NCCCN2CCOCC2)c(F)c1F [Example 91, 4,5-Difluoro-6-(4-iodo-2-methyl-phenylamino)-N-(3-morpholin4-yl-propyl)-isophthalamic acid]",in vitro MEK assay: % inhibition @ 1 μM,58%
"Cc1cc(I)ccc1Nc1c(C(=O)O)cc(C(=O)Nc2ccc(N(C)C)cc2)c(F)c1F [Example 92, N-(4-Dimethylamino-phenyl)-4,5-difluoro-6-(iodo-methyl-phenylamino)-isophthalamic acid]",in vitro MEK assay: % inhibition @ 1 μM,80%
"CCN1CCN(C(=O)c2cc(C(=O)O)c(Nc3ccc(I)cc3C)c(F)c2F)CC1 [Example 93, 5-[1-(4-Ethyl-piperazin-1-yl)-methanoyl]-3,4-difluoro-2-(4-iodo-2-methyl-phenylamino)-benzoic acid]",in vitro MEK assay: % inhibition @ 1 μM,70%
"COc1ccc(N(C)C(=O)c2cc(C(=O)O)c(Nc3ccc(I)cc3C)c(F)c2F)cc1 [Example 94, 4,5-Difluoro-6-(4-iodo-2-methyl-phenylamino)-N-(4-methoxy-phenyl)-N-methyl-isophthalamic acid]",in vitro MEK assay: % inhibition @ 1 μM,92%
"Cc1cc(I)ccc1Nc1c(C(=O)O)cc(C(=O)N(C)CCc2c[nH]c3ccccc23)c(F)c1F [Example 95, 4,5-Difluoro-N-[2-(1H-indol-3-yl)-ethyl]-6-(4-iodo-2-methyl-phenylamino)-N-methyl-isophthalamic acid]",in vitro MEK assay: % inhibition @ 1 μM,77%
"Cc1cc(I)ccc1Nc1c(C(=O)O)cc(C(=O)Nc2ccc(S(N)(=O)=O)cc2)c(F)c1F [Example 96, 4,5-Difluoro-6-(4-iodo-2-methyl-phenylamino)-N-(4-sulfamoyl-phenyl)-isophthalamic acid]",in vitro MEK assay: % inhibition @ 1 μM,85%
"Cc1cc(I)ccc1Nc1c(C(=O)O)cc(C(=O)NCC2CCCO2)c(F)c1F (stereo not shown) [Example 97, 4,5-Difluoro-6-(4-iodo-2-methyl-phenylamino)-N-(tetrahydro-furan-2-ylmethyl)-isophthalamic acid]",in vitro MEK assay: % inhibition @ 1 μM,81%
"Cc1cc(I)ccc1Nc1c(C(=O)O)cc(C(=O)N2CCSC2)c(F)c1F [Example 98, 3,4-Difluoro-2-(4-iodo-2-methyl-phenylamino)-5-(1-thiazolidin-3-yl-methanoyl)-benzoic acid]",pIC50,7.06
same,in vitro MEK assay: % inhibition @ 1 μM,86%
Cc1cc(I)ccc1Nc1c(C(=O)O)cc(C(=O)N2CCSCC2)c(F)c1F [Example 99],pIC50,6.82
same,in vitro MEK assay: % inhibition @ 1 μM,82%
"Cc1cc(I)ccc1Nc1c(C(=O)O)cc(C(=O)N2CCCC(O)C2)c(F)c1F (stereo not shown) [Example 101, 3,4-Difluoro-5-[1-(3-hydroxy-piperidin-1-yl)-methanoyl]-2-(4-iodo-2-methyl-phenylamino)-benzoic acid]",in vitro MEK assay: % inhibition @ 1 μM,75%
